Three compounds from patent publication US8981094B2, “Piperidine/piperazine derivatives” (Janssen Pharmaceutica N.V., priority 2007, dated 2015) can be followed below.

The structures appear in SMILES notation.

For one data set, the target named is T1, human DGAT1 (Homo sapiens, UniProt O75907).
T1 construct: FLAG (N); made in house; host or cells: SF9 insect cells (pFastBac baculovirus); total cell membranes
T1 sequence (O75907 1-488): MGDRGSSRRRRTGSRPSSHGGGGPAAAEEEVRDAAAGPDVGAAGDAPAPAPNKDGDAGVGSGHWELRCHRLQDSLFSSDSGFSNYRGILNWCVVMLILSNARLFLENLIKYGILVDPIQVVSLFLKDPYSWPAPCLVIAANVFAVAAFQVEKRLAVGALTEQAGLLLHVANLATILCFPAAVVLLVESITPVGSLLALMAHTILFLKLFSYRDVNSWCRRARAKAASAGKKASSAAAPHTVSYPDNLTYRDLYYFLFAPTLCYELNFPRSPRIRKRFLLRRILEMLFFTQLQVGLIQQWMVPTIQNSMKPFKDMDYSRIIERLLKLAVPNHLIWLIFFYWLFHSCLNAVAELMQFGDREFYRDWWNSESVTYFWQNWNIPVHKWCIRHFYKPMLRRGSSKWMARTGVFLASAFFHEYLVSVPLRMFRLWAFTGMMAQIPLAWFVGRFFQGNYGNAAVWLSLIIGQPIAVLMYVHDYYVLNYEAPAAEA
Briefly: Inhibition of DGAT1 activity, FlashPlate assay with DGAT1 membrane preparations and substrate micelles. It counts as biochemical. The following applies: pIC50 = -logIC50, IC50 values expressed in M. Put shortly:
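FLAG-tagged human DGAT1 membranes (expressed in Sf9 cells) were incubated 120 min at 37° C. in 50 mM Tris-HCl pH 7.4 with 150 mM MgCl2, 1 mM EDTA, 0.2% BSA, 50 μM DAG micelles (PC/PS) and 8.4 μM [^3H]-oleoylCoA. The reaction was stopped with N-ethylmaleimide and read as FlashPlate radioluminescence. Responses were normalized to enzyme/no-enzyme controls to fit dose-response curves.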

Data set [1] deals with plasma triglyceride levels. Briefly: Plasma triglyceride profile after liquid fat meal in dogs. The following applies: liquid meal 18% fat, compound given orally, compared with own profile without compound. The class given is in vivo. How it is done: (§1) Dogs were deprived from food for a period of 22 hours. At time 0, animals were given a liquid meal, containing 18% fat (w/w), by gavage with a stomach tube. The test compound was given orally together with the meal. Afterwards, a postprandial plasma profile was determined for GLP-1. Therefore, blood was collected at predetermined time intervals in ice-cooled Vacutainers EDTA-plasma tubes and GLP-1 levels were measured in the samples taken at 0 hour (just before the meal) and at 0.5, 1, 2, 4, 6, 8 and 24 hours after dosing. Six dogs (3 males and 3 females) were included per dosage group and the plasma GLP-1 profile was compared with their own GLP-1 profile previously determined in the same conditions but without administration of the test compound.
In addition to the plasma GLP-1 profile, also the plasma triglyceride profile can be determined and compared with their own triglyceride profile previously determined in the same conditions but without administration of the test compound. After administration of compound 223, triglyceride levels decreased.

Another data set deals with GLP-1 plasma levels. Briefly: In vivo study for effect of test compound on GLP-1 plasma levels (postprandial profile). As to conditions: dogs fasted 22 hours, liquid meal 18% fat, compound given orally with the meal; compared with own profile without compound; compound 223 at 0.3 mg/kg in FIG. 1. How it is done: B) In Vivo Study for Effect of Test Compound on GLP-1 Plasma Levels
Elevation of GLP-1 plasma levels by a DGAT inhibitor was studied as follows:
as §1
GLP-1 determinations in plasma were performed with a Glucagon-like peptide-1 (active) ELISA kit 96-well plate of LINCO Research.

As a reminder, the IC50 is the concentration at which inhibition is half-maximal. A high value points to lower potency. Usually melting point stands for the temperature, or range, at which the solid turns liquid. Compound `COc1ccc(CC(=O)Nc2ccc(N3CCN(C(=O)Nc4c(Cl)cc(CN5CCCC5)cc4Cl)CC3)cc2)cc1` [Compound 223] displayed a melting point of 252.22 °C. In addition, at human DGAT1, it took 20 nM to reach half-maximal inhibition (IC50). Further, the “plasma triglyceride levels (profile)” value in data set [1] is “decreased”. The “GLP-1 plasma levels (postprandial plasma profile)” value (from here on “GLP-1 plasma levels”) with GLP-1 plasma levels is listed as “increase GLP-1 levels”.

Compound `CNC(C)c1cc(Cl)c(NC(=O)N2CCN(c3ccc(NC(=O)CCCc4ccccc4)cc3)CC2)c(Cl)c1` (stereo not shown) [Compound 24] returned a melting point of 180.7 °C. This compound also gave a half-maximal inhibitory concentration (IC50) against human DGAT1 of 15.8 nM. In addition, the “GLP-1 plasma levels” value in the data set with GLP-1 plasma levels is listed as “increase GLP-1 levels”.

In the case of `O=C(CCCc1ccccc1)Nc1ccc(N2CCN(C(=O)Nc3c(Cl)cc(O)cc3Cl)CC2)cc1` [Compound 30], the melting point is 175.4 °C. Also, on human DGAT1, the IC50 was 4.47 nM. Besides, the “GLP-1 plasma levels” value in the data set on GLP-1 plasma levels is listed as “increase GLP-1 levels”.
